This note sets out measurements from BindingDB's records for doi:10.1021/jm0509703 (Takeda Pharmaceutical, 2006).

The nature of assay [1]: Inhibition of membrane fusion between HIV1 JR-FL Env-expressing COS7 cells and MOLT4/CCR5.
Assay [2] is described as follows: Inhibition of replication of R5 HIV1 Ba-L in MOLT4/CCR5 cells.

In turn, `CCCCOCCOc1ccc(-c2ccc3c(c2)C=C(C(=O)Nc2ccc([S+]([O-])Cc4nncn4CCC)cc2)CCCN3CC(C)C)cc1` (stereo not given) displayed an IC50 in assay [1] of 190 pM. Take `CCCCOCCOc1ccc(-c2ccc3c(c2)C=C(C(=O)Nc2ccc([S+]([O-])Cc4cncn4CCC)cc2)CCCN3Cc2cnn(C)c2)cc1` (stereo not given): the values for the IC50 in assay [2] and in assay [1] were 2300 pM and 210 pM, respectively. The corresponding values for `CCCCOCCOc1ccc(-c2ccc3c(c2)C=C(C(=O)Nc2ccc([S+]([O-])Cc4cncn4CCC)cc2)CCN3CC(C)C)cc1` (stereo not given) [7-(4-(2-butoxyethoxy)phenyl)-1-isobutyl-N-(4-((1-propyl-1H-imidazol-5-yl)methylsulfinyl)phenyl)-2,3-dihydro-1H-benzo[b]azepine-4-carboxamide] are 5300 pM and 1000 pM. The matching figures for `CCCCOCCOc1ccc(-c2ccc3c(c2)C=C(C(=O)Nc2ccc([S+]([O-])Cc4cncn4CCC)cc2)CCCN3CCC)cc1` [(S)-(-)-8-{4-[2-(butoxy)ethoxy]phenyl}-1-propyl-N-(4-{[(1-propyl-1H-imidazol-5-yl)methyl]sulfinyl}phenyl)-1,2,3,4-tetrahydro-1-benzazocine-5-carboxamide]: 1400 pM and 240 pM. `CCCCOCCOc1ccc(-c2ccc3c(c2)C=C(C(=O)Nc2ccc([S+]([O-])Cc4nncn4CCC)cc2)CCCN3CCC)cc1` [(S)-(-)-8-{4-[2-(butoxy)ethoxy]phenyl}-1-propyl-N-(4-{[(4-propyl-4H-1,2,4-triazol-3-yl)methyl]sulfinyl}phenyl)-1,2,3,4-tetrahydro-1-benzazocine-5-carboxamide] had an IC50 in assay [1] of 950 pM. Take `CCCCOCCOc1ccc(-c2ccc3c(c2)C=C(C(=O)Nc2ccc([S+]([O-])Cc4cncn4CCC)cc2)CCCCN3CC(C)C)cc1` [(S)-(-)-9-{4-[2-(butoxy)ethoxy]phenyl}-1-isobutyl-N-(4-{[(1-propyl-1H-imidazol-5-yl)methyl]sulfinyl}phenyl)-2,3,4,5-tetrahydro-1H-1-benzazonine-6-carboxamide]: the IC50 amounted to 2100 pM in assay [2] and 480 pM in assay [1].
